Measured values reported in the NIST ThermoML archive (doi:10.1021/je049633+).

Assay: xn = mol fraction of the nth substance listed
Details: Gas, isochoric method

[N-]=[N+]=O [nitrous oxide] + O=C=O
Details	molar volume [m3/mol]
238.1 K, 1004.5 kPa, x2 = 0.5959	0.001705
238.1 K, 1194.6 kPa, x2 = 0.6953	0.001286
243.07 K, 1032.4 kPa, x2 = 0.5959	0.001705
243.09 K, 1317 kPa, x2 = 0.6953	0.001286
248.05 K, 1059.7 kPa, x2 = 0.5959	0.001706
248.11 K, 1355.8 kPa, x2 = 0.6953	0.001286
253.04 K, 1086.8 kPa, x2 = 0.5959	0.001706
253.1 K, 1393.5 kPa, x2 = 0.6953	0.001287
258.09 K, 2081.3 kPa, x2 = 0.1499	0.000805
258.11 K, 1431.2 kPa, x2 = 0.6953	0.001287
263.02 K, 2626.7 kPa, x2 = 0.9071	0.000638
263.06 K, 2148.3 kPa, x2 = 0.1499	0.000805
263.08 K, 1140.7 kPa, x2 = 0.5959	0.001707
263.08 K, 1469 kPa, x2 = 0.6953	0.001287
263.09 K, 2245.7 kPa, x2 = 0.2607	0.000759
263.1 K, 2436.3 kPa, x2 = 0.4754	0.000668
268.02 K, 2719.9 kPa, x2 = 0.9071	0.000635
268.03 K, 2212.6 kPa, x2 = 0.1499	0.000806
268.04 K, 1168.2 kPa, x2 = 0.5959	0.001707
268.05 K, 1505.5 kPa, x2 = 0.6953	0.001287
268.08 K, 2515.8 kPa, x2 = 0.4754	0.000669
268.08 K, 2813.7 kPa, x2 = 0.3585	0.000579
268.08 K, 2907.1 kPa, x2 = 0.7478	0.000559
272.93 K, 1194.4 kPa, x2 = 0.5959	0.001708
272.93 K, 3330.4 kPa, x2 = 0.6929	0.000486
272.94 K, 1541.4 kPa, x2 = 0.6953	0.001288
272.95 K, 2909.1 kPa, x2 = 0.3585	0.00058
272.98 K, 3090.5 kPa, x2 = 0.0902	0.000512
273.04 K, 2808.9 kPa, x2 = 0.9071	0.000636
273.05 K, 2384.1 kPa, x2 = 0.2607	0.000759
273.06 K, 3007.9 kPa, x2 = 0.7478	0.000559
273.07 K, 2593.6 kPa, x2 = 0.4754	0.000669
273.12 K, 2276.8 kPa, x2 = 0.1499	0.000806
277.82 K, 3196.6 kPa, x2 = 0.0902	0.000513
277.86 K, 3791 kPa, x2 = 0.6099	0.000401
277.87 K, 3104 kPa, x2 = 0.7478	0.000559
277.94 K, 3453.5 kPa, x2 = 0.6929	0.000486
282.66 K, 3300.1 kPa, x2 = 0.0902	0.000513
282.82 K, 2743.7 kPa, x2 = 0.4754	0.000669
282.82 K, 3939.5 kPa, x2 = 0.6099	0.000401
282.83 K, 1245.4 kPa, x2 = 0.5959	0.001708
282.83 K, 1612.9 kPa, x2 = 0.6953	0.001288
282.83 K, 4250.2 kPa, x2 = 0.8378	0.00036
282.84 K, 3094.9 kPa, x2 = 0.3585	0.00058
282.9 K, 2980 kPa, x2 = 0.9071	0.000636
283.01 K, 2401.3 kPa, x2 = 0.1499	0.000806
283.01 K, 2518.2 kPa, x2 = 0.2607	0.000759
283.01 K, 3203.9 kPa, x2 = 0.7478	0.00056
283.01 K, 3574.6 kPa, x2 = 0.6929	0.000486
292.79 K, 3511.2 kPa, x2 = 0.0902	0.000513
292.89 K, 4229.6 kPa, x2 = 0.6099	0.000401
292.97 K, 1685.2 kPa, x2 = 0.6953	0.001289
292.97 K, 2524.4 kPa, x2 = 0.1499	0.000806
292.98 K, 1297.8 kPa, x2 = 0.5959	0.001709
292.98 K, 3279.6 kPa, x2 = 0.3585	0.00058
292.99 K, 3397 kPa, x2 = 0.7478	0.00056
292.99 K, 4597 kPa, x2 = 0.8378	0.00036
293.06 K, 2897.6 kPa, x2 = 0.4754	0.000669
293.06 K, 3153.2 kPa, x2 = 0.9071	0.000636
293.06 K, 3809.7 kPa, x2 = 0.6929	0.000486
293.11 K, 2651.8 kPa, x2 = 0.2607	0.00076
297.92 K, 4370.8 kPa, x2 = 0.6099	0.000401
298.04 K, 1323.7 kPa, x2 = 0.5959	0.001709
298.04 K, 2970.8 kPa, x2 = 0.4754	0.000669
298.04 K, 3235.8 kPa, x2 = 0.9071	0.000636
298.04 K, 3923.4 kPa, x2 = 0.6929	0.000486
298.05 K, 3617.5 kPa, x2 = 0.0902	0.000513
298.06 K, 3490.8 kPa, x2 = 0.7478	0.00056
299.02 K, 4795.1 kPa, x2 = 0.8378	0.00036
302.04 K, 2647.7 kPa, x2 = 0.1499	0.000807
303.02 K, 3458.7 kPa, x2 = 0.3585	0.00058
303.13 K, 2781.5 kPa, x2 = 0.2607	0.00076
307.87 K, 4646.1 kPa, x2 = 0.6099	0.000401
307.97 K, 3546.3 kPa, x2 = 0.3585	0.00058
308 K, 1375.9 kPa, x2 = 0.5959	0.00171
308 K, 1790.6 kPa, x2 = 0.6953	0.00129
308 K, 4148.1 kPa, x2 = 0.6929	0.000486
308.01 K, 3399.4 kPa, x2 = 0.9071	0.000637
308.02 K, 3818.3 kPa, x2 = 0.0902	0.000513
308.03 K, 3676.1 kPa, x2 = 0.7478	0.00056
308.07 K, 2845 kPa, x2 = 0.2607	0.00076
308.09 K, 5087.6 kPa, x2 = 0.8378	0.00036
308.13 K, 3117.6 kPa, x2 = 0.4754	0.00067
312.22 K, 2766.9 kPa, x2 = 0.1499	0.000807
317.84 K, 4915.4 kPa, x2 = 0.6099	0.000401
318.01 K, 2971.6 kPa, x2 = 0.2607	0.000761
318.02 K, 5401.8 kPa, x2 = 0.8378	0.000361
318.04 K, 3722.1 kPa, x2 = 0.3585	0.000581
318.05 K, 4013.5 kPa, x2 = 0.0902	0.000513
318.11 K, 1427.6 kPa, x2 = 0.5959	0.001711
318.11 K, 3261.7 kPa, x2 = 0.4754	0.00067
318.12 K, 1861.3 kPa, x2 = 0.6953	0.00129
318.12 K, 3563 kPa, x2 = 0.9071	0.000637
318.12 K, 4371.8 kPa, x2 = 0.6929	0.000486
318.13 K, 3860.5 kPa, x2 = 0.7478	0.00056
322.91 K, 5554.6 kPa, x2 = 0.8378	0.000361
323.11 K, 2885.7 kPa, x2 = 0.1499	0.000807
323.12 K, 5055.4 kPa, x2 = 0.6099	0.000401
327.94 K, 3893.1 kPa, x2 = 0.3585	0.000581
327.98 K, 3097.5 kPa, x2 = 0.2607	0.000761
328 K, 5712 kPa, x2 = 0.8378	0.000361
328.09 K, 1478.4 kPa, x2 = 0.5959	0.001712
328.09 K, 3404 kPa, x2 = 0.4754	0.00067
328.1 K, 1930.7 kPa, x2 = 0.6953	0.001291
328.1 K, 3722.5 kPa, x2 = 0.9071	0.000637
328.1 K, 4040.6 kPa, x2 = 0.7478	0.000561
328.1 K, 4589.4 kPa, x2 = 0.6929	0.000487
328.11 K, 4212.5 kPa, x2 = 0.0902	0.000514
328.11 K, 5188.2 kPa, x2 = 0.6099	0.000402
333.09 K, 3003.3 kPa, x2 = 0.1499	0.000808
333.1 K, 5868.1 kPa, x2 = 0.8378	0.000361
338.03 K, 4402.1 kPa, x2 = 0.0902	0.000514
338.07 K, 1529 kPa, x2 = 0.5959	0.001712
338.07 K, 4218.4 kPa, x2 = 0.7478	0.000561
338.07 K, 4804.3 kPa, x2 = 0.6929	0.000487
338.08 K, 1999.6 kPa, x2 = 0.6953	0.001291
338.08 K, 3880.7 kPa, x2 = 0.9071	0.000637
338.08 K, 4065.8 kPa, x2 = 0.3585	0.000581
338.09 K, 3223.8 kPa, x2 = 0.2607	0.000761
338.09 K, 5449.4 kPa, x2 = 0.6099	0.000402
338.11 K, 3545.6 kPa, x2 = 0.4754	0.000671
343.08 K, 3119.8 kPa, x2 = 0.1499	0.000808
343.08 K, 5578.9 kPa, x2 = 0.6099	0.000402
348.02 K, 4592.8 kPa, x2 = 0.0902	0.000514
348.05 K, 3346.9 kPa, x2 = 0.2607	0.000762
348.05 K, 3684.7 kPa, x2 = 0.4754	0.000671
348.06 K, 1579.5 kPa, x2 = 0.5959	0.001713
348.06 K, 2068.1 kPa, x2 = 0.6953	0.001292
348.06 K, 4036.9 kPa, x2 = 0.9071	0.000638
348.06 K, 4394.9 kPa, x2 = 0.7478	0.000561
348.06 K, 5017.1 kPa, x2 = 0.6929	0.000487
348.07 K, 4234.7 kPa, x2 = 0.3585	0.000582
353.04 K, 3235.1 kPa, x2 = 0.1499	0.000809
357.91 K, 4567 kPa, x2 = 0.7478	0.000561
357.95 K, 2135.6 kPa, x2 = 0.6953	0.001293
357.99 K, 1629.5 kPa, x2 = 0.5959	0.001714
357.99 K, 5226.8 kPa, x2 = 0.6929	0.000487
358.02 K, 3469.7 kPa, x2 = 0.2607	0.000762
358.02 K, 3823.2 kPa, x2 = 0.4754	0.000671
358.03 K, 4191.9 kPa, x2 = 0.9071	0.000638
358.04 K, 3292.6 kPa, x2 = 0.1499	0.000809
358.04 K, 4401.6 kPa, x2 = 0.3585	0.000582
